Source: patent US20120251551A1, “Substituted (Heteroarylmethyl)thiohydantoins” (BAYER PHARMA AKTIENGESELLSCHAFT, priority 2009, published 2012)
Substitutions are numbered along the chain they refer to.

How the values were obtained:
[1] = target: T1, human androgen receptor W741L mutant (Homo sapiens, UniProt P10275, W742L); assay: Cell-based transactivation assay for human androgen receptor mutant W741L
T1 construct: expressed in transfected cells; host or cells: PC-3 cells, transient transfection with a pSG5-derived plasmid
T1 sequence (P10275 1-920 W742L): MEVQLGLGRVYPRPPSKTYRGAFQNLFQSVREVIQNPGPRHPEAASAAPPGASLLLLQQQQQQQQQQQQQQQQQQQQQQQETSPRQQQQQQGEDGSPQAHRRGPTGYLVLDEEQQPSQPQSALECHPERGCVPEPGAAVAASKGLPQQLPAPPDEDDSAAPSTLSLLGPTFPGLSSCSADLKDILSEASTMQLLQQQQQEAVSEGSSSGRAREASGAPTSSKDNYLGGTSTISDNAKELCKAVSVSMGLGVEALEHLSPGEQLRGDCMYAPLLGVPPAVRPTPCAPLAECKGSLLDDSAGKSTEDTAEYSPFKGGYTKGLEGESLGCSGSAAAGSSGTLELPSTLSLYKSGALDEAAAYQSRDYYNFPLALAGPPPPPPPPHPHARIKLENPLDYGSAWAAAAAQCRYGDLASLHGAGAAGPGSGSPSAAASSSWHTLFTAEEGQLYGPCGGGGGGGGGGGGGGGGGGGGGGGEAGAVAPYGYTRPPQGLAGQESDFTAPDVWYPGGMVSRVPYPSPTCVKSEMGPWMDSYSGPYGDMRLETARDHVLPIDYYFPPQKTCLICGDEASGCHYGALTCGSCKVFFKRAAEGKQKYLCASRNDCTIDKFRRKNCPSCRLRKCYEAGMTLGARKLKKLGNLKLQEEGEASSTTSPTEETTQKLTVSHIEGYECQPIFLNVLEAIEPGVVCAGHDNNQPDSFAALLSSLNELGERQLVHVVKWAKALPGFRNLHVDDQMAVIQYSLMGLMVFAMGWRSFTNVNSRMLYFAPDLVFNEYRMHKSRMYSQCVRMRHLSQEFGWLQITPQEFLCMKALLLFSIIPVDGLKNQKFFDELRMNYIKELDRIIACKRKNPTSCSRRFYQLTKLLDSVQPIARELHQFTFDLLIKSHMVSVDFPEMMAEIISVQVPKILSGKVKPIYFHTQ
Protocol: Cell-Based Transactivation Assay for Human Androgen Receptor Mutant W741L or W741C
PC-3 cells (Kaighn et al., Invest. Urol. 17:16-23, 1979) were grown in 5% charcoal-stripped medium and seeded at a concentration of 10000 cells per well in a 96-well plate. They were transiently transfected with a pSG5-derived plasmid (#216201 from Stratagene, La Jolla, Calif., USA) coding for the human androgen receptor W741L or W741C mutant Mara et al., Cancer Research, 63: 149-153, 2003) and an MMTV-Luciferase reporter plasmid based on pGL4.14 14 (#E6691, Promega Corporation, Madison, Wis., USA). The compound to be tested was added at a concentration range varying from 1×10^−9 to 1×10 M together with 1×10^−10 R1881. After 24 h incubation at 37° C. in a 5% CO2 atmosphere, 100 μl of Steady Glo Lysis and Detection reagent (Steady Glo Luciferase assay system E2550 from Promega Corporation. Madison, Wis., USA) were added. Antagonistic activity was determined by measuring Luciferase activity in a Victor 3 Luminometer (PerkinElmer, Waltham, Mass., USA) using the Steady Glo Luciferase Assay (E2550, Promega). IC50 values were calculated for anti-androgenic activity.

[2] = target: T2, wild-type human androgen receptor (Homo sapiens, UniProt P10275); assay: Cell-based transactivation assay for wild-type human androgen receptor (PC-3 cells, MMTV-luciferase reporter)
T2 construct: expressed in transfected cells
T2 sequence (P10275 1-920): T1 sequence (P10275 1-920 W742L) with L742W

VCaP cells = assay: Proliferation assay with VCaP cells; format: cell-based; conditions: Homo sapiens, 168 h, R1881 (1×10^−10) stimulated growth, day 7, read-out: Antiproliferative activity VCaP IC50
Protocol: Proliferation Assay with VCaP Cells
VCaP cells ((Korenchuk et al., In Vivo 15: 163-168, 2001)) were seeded at 16 000 cells/well in 96-well plates in DMEM (F0445, Biochrom AG, Berlin, Germany) with phenol red supplemented with 10% charcoal-stripped serum. After 1 day, the cells were treated with R1881 (1×10^−10) and compound (day 0). Cell number was determined by Alamar Blue (DAL1100, Invitrogen, Life Technologies, Lohne, Germany) staining (2.5 h) at day 0 and day 7. Fluorescence was determined in Victor3 (Excitation 530 nm; emission 590 nm). Stimulated growth was defined as the signal measured at day 7 for cells treated only with R1881. Basal level was defined as the signal measured at day 7 for cells grown without R1881.

Row | Compound | IC50 [1] | EC50 [2] | IC50 (VCaP cells)
1 | CC1(C)C(=O)N(c2ccc(C#N)c(C(F)(F)F)c2)C(=S)N1Cc1ccc(-n2cnnn2)nc1 [Example 31, 4-(4,4-Dimethyl-5-oxo-3-{[6-(1H-tetrazol-1-yl)pyridin-3-yl]methyl}-2-thioxoimidazolidin-1-yl)-2-(trifluoromethyl)benzonitrile] | ≥ 1000 nM | > 10000 nM | –
2 | Cc1nnnn1-c1ccc(CN2C(=S)N(c3ccc(C#N)c(C(F)(F)F)c3)C(=O)C2(C)C)cn1 [Example 38, 4-(4,4-Dimethyl-3-{[6-(5-methyl-1H-tetrazol-1-yl)pyridin-3-yl]methyl}-5-oxo-2-thioxoimidazolidin-1-yl)-2-(trifluoromethyl)benzonitrile] | 366 nM | > 10000 nM | –
3 | CC1(C)C(=O)N(c2ccc(C#N)c(C(F)(F)F)c2)C(=S)N1Cc1ccc(-n2cnc(C(F)(F)F)n2)nc1 [Example 33, 4-[4,4-Dimethyl-5-oxo-2-thioxo-3-({6-[3-(trifluoromethyl)-1H-1,2,4-triazol-1-yl]pyridin-3-yl}methyl)imidazolidin-1-yl]-2-(trifluoromethyl)benzonitrile] | – | > 10000 nM | –
4 | Cc1ccnn1-c1ccc(CN2C(=S)N(c3ccc(C#N)c(C(F)(F)F)c3)C(=O)C2(C)C)cn1 [Example 27, 4-(4,4-Dimethyl-3-{[6-(5-methyl-1H-pyrazol-1-yl)pyridin-3-yl]methyl}-5-oxo-2-thioxoimidazolidin-1-yl)-2-(trifluoromethyl)benzonitrile] | – | > 10000 nM | –
5 | CC1(C)C(=O)N(c2ccc(C#N)c(C(F)(F)F)c2)C(=S)N1Cc1ccc(-n2nccn2)nc1 [Example 30, 4-(4,4-Dimethyl-5-oxo-2-thioxo-3-{[6-(2H-1,2,3-triazol-2-yl)pyridin-3-yl]methyl}imidazolidin-1-yl)-2-(trifluoromethyl)benzonitrile] | – | > 10000 nM | –
6 | CN1CCCN(c2ccc(CN3C(=S)N(c4ccc(C#N)c(C(F)(F)F)c4)C(=O)C3(C)C)cn2)CC1 [Example 12, 4-(4,4-Dimethyl-3-{[6-(4-methyl-1,4-diazepan-1-yl)pyridin-3-yl]methyl}-5-oxo-2-thioxoimidazolidin-1-yl)-2-(trifluoromethyl)benzonitrile] | – | > 10000 nM | –
7 | CC1(C)C(=O)N(c2ccc(C#N)c(C(F)(F)F)c2)C(=S)N1Cc1ccc(OCC(F)(F)CO)nc1 [Example 28, 4-(3-{[6-(2,2-Difluoro-3-hydroxypropoxy)pyridin-3-yl]methyl}-4,4-dimethyl-5-oxo-2-thioxoimidazolidin-1-yl)-2-(trifluoromethyl)benzonitrile] | – | > 10000 nM | –
8 | CC1(C)C(=O)N(c2ccc(C#N)c(C(F)(F)F)c2)C(=S)N1Cc1ccc(OCCN2CCNC2=O)nc1 [Example 35, 4-[4,4-Dimethyl-5-oxo-3-({6-[2-(2-oxoimidazolidin-1-yl)ethoxy]pyridin-3-yl}methyl)-2-thioxoimidazolidin-1-yl]-2-(trifluoromethyl)benzonitrile] | 44.6 nM | > 10000 nM | –
9 | CC1(C)C(=O)N(c2ccc(C#N)c(C(F)(F)F)c2)C(=S)N1Cc1ccc(-n2cnc(CO)c2)nc1 [Example 34, 4-[3-({6-[4-(Hydroxymethyl)-1H-imidazol-1-yl]pyridin-3-yl}methyl)-4,4-dimethyl-5-oxo-2-thioxoimidazolidin-1-yl]-2-(trifluoromethyl)benzonitrile] | 259 nM | > 10000 nM | 331 nM
10 | COCCOc1ccc(CN2C(=S)N(c3ccc(C#N)c(C(F)(F)F)c3)C(=O)C2(C)C)cn1 [Example 11, 4-(3-{[6-(2-Methoxyethoxy)pyridin-3-yl]methyl}-4,4-dimethyl-5-oxo-2-thioxoimidazolidin-1-yl)-2-(trifluoromethyl)benzonitrile] | – | > 10000 nM | –
11 | CC1(C)C(=O)N(c2ccc(C#N)c(C(F)(F)F)c2)C(=S)N1Cc1ccc(N2CCNC2=O)nc1 [Example 25, 4-(4,4-Dimethyl-5-oxo-3-{[6-(2-oxoimidazolidin-1-yl)pyridin-3-yl]methyl}-2-thioxoimidazolidin-1-yl)-2-(trifluoromethyl)benzonitrile] | 246 nM | > 10000 nM | –
12 | Cc1nc(OCC(C)(C)O)ccc1CN1C(=S)N(c2ccc(C#N)c(C(F)(F)F)c2)C(=O)C1(C)C [Example 37, 4-(3-{[6-(2-Hydroxy-2-methylpropoxy)-2-methylpyridin-3-yl]methyl}-4,4-dimethyl-5-oxo-2-thioxoimidazolidin-1-yl)-2-(trifluoromethyl)benzonitrile] | 241 nM | > 10000 nM | 323 nM
13 | CC1(C)C(=O)N(c2ccc(C#N)c(C(F)(F)F)c2)C(=S)N1Cc1ccc(N2CCC(CO)CC2)nc1 [Example 14, 4-[3-({6-[4-(Hydroxymethyl)piperidin-1-yl]pyridin-3-yl}methyl)-4,4-dimethyl-5-oxo-2-thioxoimidazolidin-1-yl]-2-(trifluoromethyl)benzonitrile] | – | 6000 nM | –
14 | CC1(C)C(=O)N(c2ccc(C#N)c(C(F)(F)F)c2)C(=S)N1Cc1ccc(-n2cnc(Cl)c2Cl)nc1 [Example 32, 4-(3-{[6-(4,5-Dichloro-1H-imidazol-1-yl)pyridin-3-yl]methyl}-4,4-dimethyl-5-oxo-2-thioxoimidazolidin-1-yl)-2-(trifluoromethyl)benzonitrile] | – | > 10000 nM | –
15 | CC1(C)C(=O)N(c2ccc(C#N)c(C(F)(F)F)c2)C(=S)N1Cc1ccc(N=[S@](C)(=O)c2ccccc2)nc1 [Example 26, (R)-4-{4,4-Dimethyl-3-[(6-{[methyl(oxido)phenyl-λ^6-sulfanylidene]amino}pyridin-3-yl)methyl]-5-oxo-2-thioxoimidazolidin-1-yl}-2-(trifluoromethyl)benzonitrile] | 211 nM | > 10000 nM | –
16 | CC1(C)C(=O)N(c2ccc(C#N)c(C(F)(F)F)c2)C(=S)N1Cc1ccc(-n2ccnn2)nc1 [Example 29, 4-(4,4-Dimethyl-5-oxo-2-thioxo-3-{[6-(1H-1,2,3-triazol-1-yl)pyridin-3-yl]methyl}imidazolidin-1-yl)-2-(trifluoromethyl)benzonitrile] | – | > 10000 nM | –
17 | CC1(C)C(=O)N(c2ccc(C#N)c(C(F)(F)F)c2)C(=S)N1Cc1ccc(N2CCS(=O)(=NC#N)CC2)nc1 [Example 36, {4-[5-({3-[4-Cyano-3-(trifluoromethyl)phenyl]-5,5-dimethyl-4-oxo-2-thioxoimidazolidin-1-yl}methyl)pyridin-2-yl]-1-oxido-1λ^6,4-thiomorpholin-1-ylidene}cyanamide] | ≥ 1000 nM | > 10000 nM | 329 nM
